Consider one molecule from paper PMC5218480 (PLoS ONE, 2017).

The test relates to MV-4-11 cells. As to the kind of experiment: Gene expression microarray analysis (Affymetrix PrimeView) and GSEA. The class given is cell-based, human. More on the design: RFU PODN (11730768_x_at) / Fold change /veh PODN (11730768_x_at) / RFU LINC00158 (11744669_a_at) / Fold change /veh LINC00158 (11744669_a_at) / RFU DUSP10 (11751237_a_at) / Fold change /veh DUSP10 (11751237_a_at) / RFU ID3 (11757404_x_at) / Fold change /veh ID3 (11757404_x_at) / RFU PLEKHG5 (11737974_s_at) / Fold change /veh PLEKHG5 (11737974_s_at) / RFU LRRC4B (11730491_at) / Fold change /veh LRRC4B (11730491_at) / RFU GIMAP4 (11747438_a_at) / Fold change /veh GIMAP4 (11747438_a_at) / RFU KRT8 (11758183_x_at) / Fold change /veh KRT8 (11758183_x_at) / RFU CNN1 (11734310_a_at) / Fold change /veh CNN1 (11734310_a_at) / RFU VPS37D (11726825_at) / Fold change /veh VPS37D (11726825_at) / RFU C10orf10 (11716522_x_at) / Fold change /veh C10orf10 (11716522_x_at) / RFU KIR2DL2 /// KIR2DL4 /// KIR2DL5A /// KIR2DL5B /// KIR2DS1 /// KIR2DS2 /// KIR2DS3 /// KIR2DS4 /// KIR3DL3 /// KIR3DL3 /// KIR3DS1 (11738374_at) / Fold change /veh KIR2DL2 /// KIR2DL4 /// KIR2DL5A /// KIR2DL5B /// KIR2DS1 /// KIR2DS2 /// KIR2DS3 /// KIR2DS4 /// KIR3DL3 /// KIR3DL3 /// KIR3DS1 (11738374_at) / RFU C1QL1 (11718748_at) / Fold change /veh C1QL1 (11718748_at) / RFU TMPRSS4 (11747572_a_at) / Fold change /veh TMPRSS4 (11747572_a_at) / RFU HAMP (11756126_x_at) / Fold change /veh HAMP (11756126_x_at) / RFU RNFT2 (11725882_a_at) / Fold change /veh RNFT2 (11725882_a_at) / RFU NR4A2 (11747474_a_at) / Fold change /veh NR4A2 (11747474_a_at) / RFU ABCC12 (11746883_a_at) / Fold change /veh ABCC12 (11746883_a_at) / RFU TMEM136 (11760407_x_at) / Fold change /veh TMEM136 (11760407_x_at) / RFU CLDN22 /// WWC2 (11732394_at) / Fold change /veh CLDN22 /// WWC2 (11732394_at) / RFU HLA-DPB1 (11760878_x_at) / Fold change /veh HLA-DPB1 (11760878_x_at) / RFU SPINT1 (11716480_a_at) / Fold change /veh SPINT1 (11716480_a_at) / RFU GAP43 (11754022_s_at) / Fold change /veh GAP43 (11754022_s_at) / RFU A4GNT (11735810_at) / Fold change /veh A4GNT (11735810_at) / RFU PRB3 (11715151_x_at) / Fold change /veh PRB3 (11715151_x_at) / RFU TUBB4B (11761932_at) / Fold change /veh TUBB4B (11761932_at) / RFU CAPN14 (11732068_a_at) / Fold change /veh CAPN14 (11732068_a_at) / RFU TMCC2 (11721928_a_at) / Fold change /veh TMCC2 (11721928_a_at) / RFU IRGQ (11745062_a_at) / Fold change /veh IRGQ (11745062_a_at) / RFU FAM174B (11720279_a_at) / Fold change /veh FAM174B (11720279_a_at) / RFU TMPRSS4 (11748680_a_at) / Fold change /veh TMPRSS4 (11748680_a_at) / RFU FAM212B (11763350_a_at) / Fold change /veh FAM212B (11763350_a_at) / RFU PLEKHG5 (11743358_a_at) / Fold change /veh PLEKHG5 (11743358_a_at) / RFU ZSCAN30 (11745921_a_at) / Fold change /veh ZSCAN30 (11745921_a_at) / RFU CMKLR1 (11741424_a_at) / Fold change /veh CMKLR1 (11741424_a_at) / RFU LOC101060620 /// MAPK8IP1 (11723275_at) / Fold change /veh LOC101060620 /// MAPK8IP1 (11723275_at) / RFU SPTSSB (11747773_x_at) / Fold change /veh SPTSSB (11747773_x_at) / RFU PRSS12 (11739890_at) / Fold change /veh PRSS12 (11739890_at) / RFU BIN1 (11741810_x_at) / Fold change /veh BIN1 (11741810_x_at) / RFU WNT11 (11732464_a_at) / Fold change /veh WNT11 (11732464_a_at) / RFU C10orf10 (11716521_a_at) / Fold change /veh C10orf10 (11716521_a_at) / RFU C5orf56 (11738089_at) / Fold change /veh C5orf56 (11738089_at) / RFU CYB561 (11721691_x_at) / Fold change /veh CYB561 (11721691_x_at) / RFU ANKRD19P (11752326_a_at) / Fold change /veh ANKRD19P (11752326_a_at) / RFU OR2T12 /// OR2T33 /// OR2T8 (11738714_s_at) / Fold change /veh OR2T12 /// OR2T33 /// OR2T8 (11738714_s_at) / RFU VCAN (11748164_a_at) / Fold change /veh VCAN (11748164_a_at) / RFU JSRP1 (11732532_at) / Fold change /veh JSRP1 (11732532_at) / RFU KRTAP10-11 (11738290_x_at) / Fold change /veh KRTAP10-11 (11738290_x_at) / RFU MYO3A (11730013_a_at) / Fold change /veh MYO3A (11730013_a_at) / RFU EBF3 (11725865_a_at) / Fold change /veh EBF3 (11725865_a_at) / RFU CAMK2N1 (11719241_x_at) / Fold change /veh CAMK2N1 (11719241_x_at) / RFU C5orf56 (11738088_a_at) / Fold change /veh C5orf56 (11738088_a_at) / RFU OLFML3 (11715873_a_at) / Fold change /veh OLFML3 (11715873_a_at) / RFU LOC100653217 /// NTM (11731650_a_at) / Fold change /veh LOC100653217 /// NTM (11731650_a_at) / RFU MAPK11 (11762145_a_at) / Fold change /veh MAPK11 (11762145_a_at) / RFU FIZ1 (11724087_x_at) / Fold change /veh FIZ1 (11724087_x_at) / RFU OASL (11726364_x_at) / Fold change /veh OASL (11726364_x_at) / RFU SOX15 (11748057_x_at) / Fold change /veh SOX15 (11748057_x_at) / RFU CD79A (11719716_a_at) / Fold change /veh CD79A (11719716_a_at) / RFU HIST1H1D (11736915_at) / Fold change /veh HIST1H1D (11736915_at) / RFU CASKIN2 (11723855_a_at) / Fold change /veh CASKIN2 (11723855_a_at) / RFU LOC730098 (11760151_x_at) / Fold change /veh LOC730098 (11760151_x_at) / RFU OR4N2 (11742367_at) / Fold change /veh OR4N2 (11742367_at) / RFU PRRT2 (11749266_a_at) / Fold change /veh PRRT2 (11749266_a_at) / RFU SNX32 (11753110_a_at) / Fold change /veh SNX32 (11753110_a_at) / RFU CDHR5 (11726645_a_at) / Fold change /veh CDHR5 (11726645_a_at) / RFU RCAN1 (11760418_a_at) / Fold change /veh RCAN1 (11760418_a_at) / RFU FAM167A (11723789_a_at) / Fold change /veh FAM167A (11723789_a_at) / RFU FAM26E (11764081_at) / Fold change /veh FAM26E (11764081_at) / RFU ISYNA1 (11749810_s_at) / Fold change /veh ISYNA1 (11749810_s_at) / RFU ACY1 (11761880_at) / Fold change /veh ACY1 (11761880_at) / RFU 11764098_at / Fold change /veh 11764098_at / RFU SAMD14 (11745864_x_at) / Fold change /veh SAMD14 (11745864_x_at) / RFU NPB (11741838_a_at) / Fold change /veh NPB (11741838_a_at) / RFU TMPRSS6 (11731388_a_at) / Fold change /veh TMPRSS6 (11731388_a_at) / RFU KRTAP10-2 (11738614_at) / Fold change /veh KRTAP10-2 (11738614_at) / RFU ARHGAP8 /// PRR5-ARHGAP8 (11727945_x_at) / Fold change /veh ARHGAP8 /// PRR5-ARHGAP8 (11727945_x_at) / RFU KRTAP5-7 /// NADSYN1 (11734609_at) / Fold change /veh KRTAP5-7 /// NADSYN1 (11734609_at) / RFU RASL12 (11751679_a_at) / Fold change /veh RASL12 (11751679_a_at) / RFU CDKN2B (11736163_a_at) / Fold change /veh CDKN2B (11736163_a_at) / RFU PRF1 (11729649_at) / Fold change /veh PRF1 (11729649_at) / RFU, ZNF638 /// ZNF638-IT1 / Fold change vs veh, ZNF638 /// ZNF638-IT1 / RFU, PANK3 / Fold change vs veh, PANK3 / RFU, SH3YL1 / Fold change vs veh, SH3YL1 / RFU, ZEB2 / Fold change vs veh, ZEB2 / RFU, NRIP1 / Fold change vs veh, NRIP1 / RFU, PTTG1IP / Fold change vs veh, PTTG1IP / RFU, CAPN2 / Fold change vs veh, CAPN2 / RFU, MED14 / Fold change vs veh, MED14 / RFU, SNORA58 / Fold change vs veh, SNORA58 / RFU, C1orf63 / Fold change vs veh, C1orf63 / RFU, LRRFIP1 / Fold change vs veh, LRRFIP1 / RFU, NDUFAF7 / Fold change vs veh, NDUFAF7 / RFU, SLC12A2 / Fold change vs veh, SLC12A2 / RFU, IBTK / Fold change vs veh, IBTK / RFU, ESF1 / Fold change vs veh, ESF1 / Fold change vs veh, TMEM50B / RFU, TAOK1 / Fold change vs veh, TAOK1 / RFU, ACBD3 / Fold change vs veh, ACBD3 / RFU, TMA16 / Fold change vs veh, TMA16 / RFU, RWDD3 / Fold change vs veh, RWDD3 / RFU, BCAT1 / Fold change vs veh, BCAT1 / RFU, EDEM3 / Fold change vs veh, EDEM3 / RFU, TMEM33 / Fold change vs veh, TMEM33 / RFU, WDR75 / Fold change vs veh, WDR75 / RFU, AHCTF1 / Fold change vs veh, AHCTF1 / RFU, TFRC / Fold change vs veh, TFRC / RFU, ZDHHC17 / Fold change vs veh, ZDHHC17 / RFU, NOM1 / Fold change vs veh, NOM1 / RFU, ARL8B / Fold change vs veh, ARL8B / RFU, ZBTB11 / Fold change vs veh, ZBTB11 / RFU, TAMM41 / Fold change vs veh, TAMM41 / RFU, KIAA1704 /// LOC100996395 / Fold change vs veh, KIAA1704 /// LOC100996395 / RFU, ING1 / Fold change vs veh, ING1 / RFU, TRMT61B / Fold change vs veh, TRMT61B / RFU, FUBP3 / Fold change vs veh, FUBP3 / RFU, TP53 / Fold change vs veh, TP53 / RFU, TNKS2 / Fold change vs veh, TNKS2 / RFU, ZFP14 / Fold change vs veh, ZFP14 / RFU, ACTR2 / Fold change vs veh, ACTR2 / RFU, PPP3R1 / Fold change vs veh, PPP3R1 / RFU, PIK3R1 / Fold change vs veh, PIK3R1 / RFU, HNRNPA1 / Fold change vs veh, HNRNPA1 / RFU, RNF170 / Fold change vs veh, RNF170 / RFU, ZNF28 / Fold change vs veh, ZNF28 / RFU, RNGTT / Fold change vs veh, RNGTT / RFU, OGT / Fold change vs veh, OGT / RFU, BRD1 / Fold change vs veh, BRD1 / RFU, MARS / Fold change vs veh, MARS / RFU, ZNF655 / Fold change vs veh, ZNF655 / RFU, FAHD1 / Fold change vs veh, FAHD1 / RFU, BDP1 / Fold change vs veh, BDP1 / RFU, LRRCC1 / Fold change vs veh, LRRCC1 / RFU, ARID1A / Fold change vs veh, ARID1A / RFU, ZNF146 / Fold change vs veh, ZNF146 / RFU, ZNF330 / Fold change vs veh, ZNF330 / RFU, GPN3 / Fold change vs veh, GPN3 / RFU, C9orf123 / Fold change vs veh, C9orf123 / RFU, N4BP2L2 / Fold change vs veh, N4BP2L2 / RFU, ARFIP1 / Fold change vs veh, ARFIP1 / RFU, FAM179B / Fold change vs veh, FAM179B / RFU, BCL10 / Fold change vs veh, BCL10 / RFU, UHRF1BP1L / Fold change vs veh, UHRF1BP1L / RFU, BET1 / Fold change vs veh, BET1 / RFU, CNOT2 / Fold change vs veh, CNOT2 / RFU, ZNF268 / Fold change vs veh, ZNF268 / Fold change vs veh, ZNF507 / RFU, DGCR2 / Fold change vs veh, DGCR2 / RFU, WDSUB1 / Fold change vs veh, WDSUB1 / Fold change vs veh, HSP90B1 /// MIR3652 / RFU, ADSS / Fold change vs veh, ADSS / RFU, GK / Fold change vs veh, GK / RFU, ZNF148 / Fold change vs veh, ZNF148 / RFU, TAF9 / Fold change vs veh, TAF9 / RFU, SLC1A5 / Fold change vs veh, SLC1A5 / RFU, SLMO2 / Fold change vs veh, SLMO2 / RFU, ABCC4 / Fold change vs veh, ABCC4 / RFU, LOC101060439 /// RAP1B / Fold change vs veh, LOC101060439 /// RAP1B / RFU, RFX7 / Fold change vs veh, RFX7 / RFU, GTPBP10 / Fold change vs veh, GTPBP10 / RFU, CNEP1R1 / Fold change vs veh, CNEP1R1 / RFU, BIVM-ERCC5 /// ERCC5 / Fold change vs veh, BIVM-ERCC5 /// ERCC5 / RFU, ILF3 / Fold change vs veh, ILF3 / RFU 11762660_at / Fold change /veh 11762660_at / RFU VCAN (11757783_s_at) / Fold change /veh VCAN (11757783_s_at) / RFU DDX43 (11728927_at) / Fold change /veh DDX43 (11728927_at) / RFU KRT8 (11758188_x_at) / Fold change /veh KRT8 (11758188_x_at) / RFU NKD1 (11759106_at) / Fold change /veh NKD1 (11759106_at) / RFU SRD5A1 (11742802_a_at) / Fold change /veh SRD5A1 (11742802_a_at) / RFU TPSAB1 /// TPSB2 (11721975_s_at) / Fold change /veh TPSAB1 /// TPSB2 (11721975_s_at) / RFU GSTM3 (11746129_a_at) / Fold change /veh GSTM3 (11746129_a_at) / RFU IL23R (11737362_x_at) / Fold change /veh IL23R (11737362_x_at) / RFU TMEM51 (11727254_a_at) / Fold change /veh TMEM51 (11727254_a_at) / RFU PIWIL2 (11732686_x_at) / Fold change /veh PIWIL2 (11732686_x_at) / RFU ORM1 (11744905_x_at) / Fold change /veh ORM1 (11744905_x_at) / RFU CCDC152 (11743942_at) / Fold change /veh CCDC152 (11743942_at) / RFU ECM1 (11717891_a_at) / Fold change /veh ECM1 (11717891_a_at) / RFU IL23R (11748794_a_at) / Fold change /veh IL23R (11748794_a_at) / RFU TNFAIP8L3 (11732012_x_at) / Fold change /veh TNFAIP8L3 (11732012_x_at) / RFU MBOAT4 (11741988_at) / Fold change /veh MBOAT4 (11741988_at) / RFU 11764193_at / Fold change /veh 11764193_at / RFU TMEM53 (11763286_at) / Fold change /veh TMEM53 (11763286_at) / RFU MAGEB2 (11727129_at) / Fold change /veh MAGEB2 (11727129_at) / RFU TMEM200A (11744735_a_at) / Fold change /veh TMEM200A (11744735_a_at) / RFU CCDC152 (11751479_a_at) / Fold change /veh CCDC152 (11751479_a_at) / RFU FAM211A (11726209_a_at) / Fold change /veh FAM211A (11726209_a_at) / RFU RGS16 (11746705_a_at) / Fold change /veh RGS16 (11746705_a_at) / RFU VCAN (11755009_s_at) / Fold change /veh VCAN (11755009_s_at) / RFU RHOB (11743442_s_at) / Fold change /veh RHOB (11743442_s_at) / RFU RGS16 (11720943_a_at) / Fold change /veh RGS16 (11720943_a_at) / RFU RGS16 (11720944_at) / Fold change /veh RGS16 (11720944_at) / RFU, VPS4B / Fold change vs veh, VPS4B / RFU, CREB1 / Fold change vs veh, CREB1 / RFU, DNAJC13 / Fold change vs veh, DNAJC13 / RFU, GNAQ / Fold change vs veh, GNAQ / RFU, CDK5R1 / Fold change vs veh, CDK5R1 / RFU, ZRANB3 / Fold change vs veh, ZRANB3 / RFU, CUL4A / Fold change vs veh, CUL4A / RFU, CCNY / Fold change vs veh, CCNY / RFU, UFL1 / Fold change vs veh, UFL1 / RFU, COG3 / Fold change vs veh, COG3 / RFU, DIAPH2 / Fold change vs veh, DIAPH2 / RFU, SKA2 / Fold change vs veh, SKA2 / RFU, AFF3 / Fold change vs veh, AFF3 / RFU, LMF1 / Fold change vs veh, LMF1 / RFU, IPO11 / Fold change vs veh, IPO11 / RFU, DFFB / Fold change vs veh, DFFB / RFU, FOXP1 / Fold change vs veh, FOXP1 / RFU, CARD8 / Fold change vs veh, CARD8 / RFU, STRN3 / Fold change vs veh, STRN3 / RFU, ADK / Fold change vs veh, ADK / RFU, RASSF2 / Fold change vs veh, RASSF2 / RFU, WIPF1 / Fold change vs veh, WIPF1 / RFU, LARP1B / Fold change vs veh, LARP1B / RFU, RASA1 / Fold change vs veh, RASA1 / RFU, RB1 / Fold change vs veh, RB1 / RFU, PPFIA1 / Fold change vs veh, PPFIA1 / RFU, MAT2A / Fold change vs veh, MAT2A / RFU, CCT5 / Fold change vs veh, CCT5 / RFU, WDR92 / Fold change vs veh, WDR92 / RFU, CUX1 / Fold change vs veh, CUX1 / RFU, TTC7A / Fold change vs veh, TTC7A / RFU, TMEM135 / Fold change vs veh, TMEM135 / RFU, DEPTOR / Fold change vs veh, DEPTOR / RFU, CPM / Fold change vs veh, CPM / RFU, DNAJB6 / Fold change vs veh, DNAJB6 / RFU, CACNA2D3 / Fold change vs veh, CACNA2D3 / RFU, DTX4 / Fold change vs veh, DTX4 / RFU, TFCP2 / Fold change vs veh, TFCP2 / RFU, GMCL1 /// GMCL1P1 / Fold change vs veh, GMCL1 /// GMCL1P1 / RFU, AEBP2 / Fold change vs veh, AEBP2 / RFU, SNHG1 /// SNORD22 /// SNORD25 /// SNORD26 /// SNORD27 /// SNORD28 /// SNORD29 /// SNORD31 / Fold change vs veh, SNHG1 /// SNORD22 /// SNORD25 /// SNORD26 /// SNORD27 /// SNORD28 /// SNORD29 /// SNORD31 / Fold change (Aza/veh), C12orf56 (ProbeSet 11735607_a_at) / Fold change (ACY-1035/veh), C12orf56 (ProbeSet 11735607_a_at) / Fold change (Aza/veh), FGFR1OP (ProbeSet 11751329_s_at) / Fold change (ACY-1035/veh), FGFR1OP (ProbeSet 11751329_s_at) / Fold change (Aza/veh), VPS36 (ProbeSet 11739960_a_at) / Fold change (ACY-1035/veh), VPS36 (ProbeSet 11739960_a_at) / RFU SYPL1 (11715823_x_at) / Fold change /veh SYPL1 (11715823_x_at) / RFU IGFBP7 (11715501_s_at) / Fold change /veh IGFBP7 (11715501_s_at) / RFU REEP3 (11722064_at) / Fold change /veh REEP3 (11722064_at) / RFU IGLL1 (11728026_x_at) / Fold change /veh IGLL1 (11728026_x_at): dose or concentration left out as unconfirmed. As to conditions: ProbeSet 11758440_s_at; LIST B.

As for `Nc1ncn([C@@H]2O[C@H](CO)[C@@H](O)[C@H]2O)c(=O)n1` [azacitidine], the “RFU, RFX7” value amounted to 45.74 RFU.
